According to ChEMBL document CHEMBL3638593, “Macrocycles as factor XIa inhibitors” (2015):
pKi: −log10 of the molar value.

Target: Coagulation factor XI (Homo sapiens, UniProt P03951)
Experiment: In Vitro Assay: The effectiveness of compounds of the present invention as inhibitors of the coagulation Factors XIa, VIIa, IXa, Xa, XIIa, plasma kallikrein or thrombin, can be determined using a relevant purified serine protease, respectively, and an appropriate synthetic substrate. The rate of hydrolysis of the chromogenic or fluorogenic substrate by the relevant serine protease was measured both in the absence and presence of compounds of the present invention. […] A decrease in the rate of absorbance or fluorescence change in the presence of inhibitor is indicative of enzyme inhibition. Such methods are known to one skilled in the art.

Sequence of Coagulation factor XI (P03951 19-387 limits assumed): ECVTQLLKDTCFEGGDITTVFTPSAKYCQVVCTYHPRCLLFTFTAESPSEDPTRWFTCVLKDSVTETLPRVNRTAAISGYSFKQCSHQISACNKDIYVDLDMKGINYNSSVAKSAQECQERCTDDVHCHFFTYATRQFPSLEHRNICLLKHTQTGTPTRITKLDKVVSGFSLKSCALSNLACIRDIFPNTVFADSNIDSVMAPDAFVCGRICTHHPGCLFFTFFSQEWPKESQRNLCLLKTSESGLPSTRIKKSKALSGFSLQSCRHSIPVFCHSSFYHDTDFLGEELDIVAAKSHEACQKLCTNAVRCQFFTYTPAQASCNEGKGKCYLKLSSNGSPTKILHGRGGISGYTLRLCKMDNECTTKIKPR
Sequence of Coagulation factor XI (P03951 388-625 limits assumed): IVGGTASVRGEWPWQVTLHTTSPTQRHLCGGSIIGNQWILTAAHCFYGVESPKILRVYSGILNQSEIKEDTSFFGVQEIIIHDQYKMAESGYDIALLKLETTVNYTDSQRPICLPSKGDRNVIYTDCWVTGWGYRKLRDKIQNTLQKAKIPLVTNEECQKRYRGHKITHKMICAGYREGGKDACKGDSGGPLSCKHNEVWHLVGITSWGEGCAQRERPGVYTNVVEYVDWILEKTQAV

SMILES: O=C(/C=C/c1cc(Cl)ccc1-n1cnnn1)N[C@H]1CCCCC(=O)Nc2cc3[nH]ncc3cc2-c2c[nH]c1n2
- pKi: 6.74
